From patent US6806085B1, “2-deoxyglucose-6-phosphate (2-DOG-6-P) phosphatase DNA sequences as selection marker in plants” (IPK Gatersleben, priority 1997, dated 2004)

Experiments:
yeast cells = settings: addition of 2-DOG; cited from earlier work
potato shoots = experiment: Potato shoots on 0.05% 2-DOG containing MS medium; format: in vivo, Solanum tuberosum var. Solara; settings: five weeks
Source text: Shoots of potato plants Solanum tuberosum var. Solara were placed on 0.05% 2-DOG containing MS medium. A: five weeks old shoot of an untransformed plant; B: five weeks old shoot of a plant expressing the DOG^R1 gene under the control of the 35S promoter. The construct described in Example 3 was transferred to potato plants Solanum tuberosum var. Solara by Agrobacteria-mediated transformation. The regenerated shoots were cultivated on selection-free medium. After six weeks the tips of the shoots were transferred to 0.05% 2-DOG containing MS medium.

pea calli = experiment: Pea calli on 0.075% 2-DOG containing medium; format: cell-based, Pisum sativum
Source text: Calli of pea plants Pisum sativum were placed on 0.075% 2-DOG containing B5 medium. A: calllus of untransformed plant on 0.075% 2-DOG; B: callus of a plant expressing the DOG^R1 gene under the control of the 35S promoter on 0.075% 2-DOG. The construct described in Example 10 was transferred to pea plants of Pisum sativum by Agrobacteria-mediated transformation. Calli of transformed and untransformed plants were placed on 0.075% 2-DOG containing medium.

potato leaf disks = experiment: Toxicity of 2-DOG for plant cells, potato leaf pieces on 2-DOG-containing MS medium; format: cell-based, Solanum tuberosum var. Solara; settings: MS medium with 0.01 to 0.5% 2-DOG, two weeks
Source text: (§1) FIGS. 2A and 2B Cultivation of tobacco (Nicotiana tabacum Var. Samsun NN, A-D) and potato (Solanum tuberosum var. Solara, E-H) leaf disks on 2-DOG-containing MS medium. A, E: control MS medium without addition of 2-deoxyglucose; B, F: MS medium with 0.05% 2-DOG; C, G:MS medium with 0.1% 2-DOG; D, H: MS medium with 0.5% 2-DOG. For the detection of the toxicity of 2-DOG leaf pieces (about 1 cm^2) of sterile tobacco and potato plants were cultivated for two weeks on Murashige and Skoog medium (Murashige & Skoog (1962) Physiol. Plant. 15, 473), to which 0.01 to 0.5% 2-DOG had been added.

tobacco leaf disks = experiment: Toxicity of 2-DOG for plant cells, tobacco leaf pieces on 2-DOG-containing MS medium; format: cell-based, Nicotiana tabacum Var. Samsun NN; settings: MS medium with 0.01 to 0.5% 2-DOG, two weeks
Source text: as §1

[1] = test system: Picea excelsa (spruce) cells; settings: cited from earlier work
Nicotiana tabacum cells = settings: cited from earlier work
tobacco seedlings = experiment: Tobacco seedlings on 0.05% 2-DOG containing MS medium; format: in vivo, Nicotiana tabacum Var. Samsun NN; settings: four weeks
Source text: Seeds of Nicotiana tabacum Var. Samsun NN were sterilized and placed on 0.05% 2-DOG containing MS medium. A: four weeks old seedlings of an untransformed plant; B: four weeks old seedlings of a plant expressing the DOG^R1 gene under the control of the 35S promoter. In order to detect the resistance of seedlings expressing the DOG^R1 gene seeds of the tobacco plants described in Examples 5 and 6 as well as seeds of untransformed tobacco plants were sterilized and placed on 0.05% 2-DOG containing MS medium.

[2] = test system: root growth of many plants; settings: addition of 2-DOG; cited from earlier work

O=CC[C@@H](O)[C@H](O)[C@H](O)CO [2-DOG, 2-deoxyglucose]
respiration and growth of cells (yeast cells): inhibition of the respiration and the growth of cells
shoot growth (potato shoots; shoot expressing DOG^R1 gene under 35S promoter): exhibits root and stem growth
shoot growth (potato shoots; shoot of untransformed plant): has not grown
shoot development from callus (pea calli; callus of untransformed plants): did not develop Shoots
shoot development from callus (pea calli; callus transformed with DOG^R1 gene under 35S promoter): developed shoots
effect on leaf disks (potato leaf disks): caused the leaf disks to die
effect on leaf disks (tobacco leaf disks): caused the leaf disks to die
cell growth in tissue culture [1]: strongly inhibited
cell growth in tissue culture (Nicotiana tabacum cells): strongly inhibited
seedling survival (tobacco seedlings; seedlings expressing DOG^R1 gene under 35S promoter): vital
seedling survival (tobacco seedlings; seedlings of untransformed plants): died at an early stage of development
root growth [2]: inhibits the root growth
